Source: patent US6617450B1, “P-glycoproteins and uses thereof” (Becton Dickinson and Company, priority 1999, dated 2003)

Test system: cynomologous monkey PGP
Test: Polarization of vinblastine transport across cynomologous monkey PGP transfected LLC-PK1 cell monolayers in Transwells
Type: cell-based, cynomologous monkey (Macaca fascicularis)
Conditions: PGP transfected cells, relative to control cells; vinblastine (0.1 μM) transport in Transwells
Source text: Cynomologous monkey PGP cDNA (SEQ ID NO:3) is introduced into a clonal population of LLC-PK 1 cells in a vector that confers resistance to hygromycin B. LLC-PK1 cells are obtained from the American Type Culture Collections and are propagated in Medium 199 supplemented to 7% with fetal bovine serum. LLC-PK1 cells are recloned prior to transfection in order to assure homogeneity of the cell population. Briefly, cynomologous monkey PGP cDNA is incorporated into the p222CMV vector. […] The PGP cDNA is under the control of the cytomegalovirus (CMV) immediate early promoter. […] Expression of PGP is measured by the polarization of vinblastine (0.1 μM) transport in Transwells™.
LLC-PK1 cell based transport studies are conducted in 24 well Transwells™(Corning Costar, Catalog number 3415). […] Transport is measured under sink conditions in both the apical to basolateral (A to B) and basolateral to apical (B to A) directions. […] Quantitation of the amount of compound transported is by liquid scintillation counting (vinblastine) or HPLC with UV or mass spectrometric detection.
Functional expression of cynomologous monkey PGP is measured by the polarization of transport of vinblastine.

## CC[C@]1(O)C[C@@H]2CN(CCc3c([nH]c4ccccc34)[C@@](C(=O)OC)(c3cc4c(cc3OC)N(C)[C@H]3[C@@](O)(C(=O)OC)[C@H](OC(C)=O)[C@]5(CC)C=CCN6CC[C@]43[C@@H]65)C2)C1 [vinblastine]
  B to A/A to B ratio: much higher ratio
